Experimental data: ChEMBL document CHEMBL1126869, “Conformational analysis of a highly potent dicyclic gonadotropin-releasing hormone antagonist by nuclear magnetic resonance and molecular dynamics” (1993)
Bridge positions count the residues as written; N and C are the ends. Square brackets hold non-standard residues; d marks the D form. Peptide text beside a SMILES is read from it. dPhe(4-Cl) = N[C@H](Cc1ccc(Cl)cc1)C(=O)O; d2Nal = N[C@H](Cc1ccc2ccccc2c1)C(=O)O; Dap = NC[C@H](N)C(=O)O

Assay: Biological potency in the anti-ovulatory assay in rat (dosage rats ovulating/total rats)
Format: functional

Q: Which Dosage does the source give for `CC(=O)N1CCC[C@H]1C(=O)N[C@H](Cc1ccc(F)cc1)C(=O)N[C@H](Cc1c[nH]c2ccccc12)C(=O)N[C@H]1CC(=O)NC[C@@H](C(N)=O)NC(=O)[C@@H]2CCCN2C(=O)[C@H](CCCN=C(N)N)NC(=O)[C@H](CC(C)C)NC(=O)[C@@H](Cc2ccc3ccccc3c2)NC(=O)[C@H](Cc2ccc(O)cc2)NC1=O` here?
A: 10 µg

Q: Which Dosage does the source give for `CC(C)C[C@@H]1C(=O)N[C@@H](CCCN=C(N)N)C(=O)N2CCC[C@@H]2C(=O)NCCC(=O)N2CCC[C@@H]2C(=O)N[C@@H](Cc2ccc(Cl)cc2)C(=O)N[C@H](Cc2c[nH]c3ccccc23)C(=O)N[C@@H](CO)C(=O)N[C@H](Cc2ccc(O)cc2)C(=O)N[C@@H](Cc2c[nH]c3ccccc23)C(=O)N1C` here?
A: 1000 µg

Q: Which Dosage does the source give for `CC(=O)N[C@H](Cc1ccc2ccccc2c1)C(=O)N[C@H](Cc1ccc(Cl)cc1)C(=O)N[C@H](Cc1c[nH]c2ccccc12)C(=O)N[C@H]1CC(=O)NC[C@@H](C(N)=O)NC(=O)[C@@H]2CCCN2C(=O)[C@@H]2CCCCNC(=O)CC[C@H](NC1=O)C(=O)N[C@H](CCCN=C(N)N)C(=O)N[C@@H](CC(C)C)C(=O)N2` (Ac-[d2Nal][dPhe(4-Cl)][dW]DE[dR]LKP[Dap]-NH2; lactam 4-10, 5-8) here?
A: 5 µg
